Test results taken from PubChem BioAssay (NCI).
Where “and” joins values, the source holds several entries; their conditions need not be identical. Identical values can stand only once.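 Briefly, cells in 96-well plates were exposed to five compound concentrations for 48 h, and endpoints were estimated by linear interpolation. GI50 marks 50% less growth. At the TGI there is no net growth.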

What was measured:
Assay in all cases: DTP human tumour cell line panel, 48 h
MDA-MB-468 breast = system: MDA-MB-468 breast
OVCAR-3 ovarian = system: OVCAR-3 ovarian
SK-MEL-5 melanoma = system: SK-MEL-5 melanoma
RXF 393 renal = system: RXF 393 renal
MDA-MB-435 = system: MDA-MB-435
HS 578T breast = system: HS 578T breast
OVCAR-5 ovarian = system: OVCAR-5 ovarian
T-47D breast = system: T-47D breast
DU-145 prostate = system: DU-145 prostate
SNB-75 CNS = system: SNB-75 CNS
MCF7 breast = system: MCF7 breast
SF-539 CNS = system: SF-539 CNS
SK-MEL-2 melanoma = system: SK-MEL-2 melanoma
SR leukemia = system: SR leukemia
LOX IMVI melanoma = system: LOX IMVI melanoma
CCRF-CEM leukemia = system: CCRF-CEM leukemia
CAKI-1 renal = system: CAKI-1 renal
UACC-257 melanoma = system: UACC-257 melanoma
KM12 colon = system: KM12 colon
HCT-15 colon = system: HCT-15 colon
A498 renal = system: A498 renal
SK-OV-3 ovarian = system: SK-OV-3 ovarian
UACC-62 melanoma = system: UACC-62 melanoma
TK-10 renal = system: TK-10 renal
RPMI-8226 leukemia = system: RPMI-8226 leukemia
HCC-2998 colon = system: HCC-2998 colon
786-0 renal = system: 786-0 renal
SF-268 CNS = system: SF-268 CNS
MALME-3M melanoma = system: MALME-3M melanoma
SN12C renal = system: SN12C renal
NCI-H522 lung = system: NCI-H522 lung
SF-295 CNS = system: SF-295 CNS
EKVX NSCLC = system: EKVX NSCLC

O=C(Nc1cccc(-n2cc(-c3ccncc3)c(-c3cc(O)cc(Cl)c3)n2)c1)Nc1ccc(Cl)c(Cl)c1
GI50 (MDA-MB-468 breast): 1710 nM
TGI (MDA-MB-468 breast): 7090 nM

COc1ccc(Nc2nc(NCc3ccccc3)c3ccccc3n2)cc1
GI50 (MDA-MB-468 breast): 1610 nM
TGI (MDA-MB-468 breast): 3370 nM

O=Cc1ncc(-c2ccc(C(F)(F)F)cc2)c(NC2CCCCCC2)n1
GI50 (MDA-MB-468 breast): > 10000 nM
TGI (MDA-MB-468 breast): > 10000 nM

CCN1CCN(CCNc2nccc(-c3c(-c4cccc(O)c4)nc4sccn34)n2)S1(=O)=O
GI50 (MDA-MB-468 breast): 9040 nM and 12500 nM
TGI (MDA-MB-468 breast): 32500 nM and 36600 nM

CCN(CC)CCC(CNc1c2ccc([N+](=O)[O-])cc2nc2cc(OC)c(OC)cc12)c1ccccc1 (centres undefined)
GI50 (MDA-MB-468 breast): 324 nM and 229 nM
TGI (MDA-MB-468 breast): 1630 nM and 1220 nM

Cc1ccccc1NC(=O)N/C(N)=N/c1nc2ccccc2s1
GI50 (MDA-MB-468 breast): 233 nM
TGI (MDA-MB-468 breast): > 100000 nM

O=C(/C=C/c1ccccc1O)c1ccccc1
GI50 (MDA-MB-468 breast): 6060 nM
TGI (MDA-MB-468 breast): 19200 nM

CC1=C(CN(O)C(N)=O)C2=C(C)C3(CC3)[C@@](C)(O)C(=O)C2=C1
GI50 (MDA-MB-468 breast): 141 nM
TGI (MDA-MB-468 breast): 347 nM

Cn1cc(-c2cc(N)n3nc(-c4c[nH]c5ccc(Br)cc45)cc3n2)c2cccnc21
GI50 (OVCAR-3 ovarian): 1670 nM
TGI (OVCAR-3 ovarian): 3120 nM
GI50 (SK-MEL-5 melanoma): 1750 nM
TGI (SK-MEL-5 melanoma): 3280 nM
GI50 (RXF 393 renal): 1650 nM
TGI (RXF 393 renal): 3240 nM
GI50 (MDA-MB-435): 1700 nM
TGI (MDA-MB-435): 3160 nM
GI50 (HS 578T breast): 2320 nM
TGI (HS 578T breast): 5610 nM
GI50 (OVCAR-5 ovarian): 1410 nM
TGI (OVCAR-5 ovarian): 3240 nM
GI50 (T-47D breast): 2030 nM
TGI (T-47D breast): 5070 nM
GI50 (MDA-MB-468 breast): 1590 nM
TGI (MDA-MB-468 breast): 3240 nM
GI50 (DU-145 prostate): 1820 nM
TGI (DU-145 prostate): 3400 nM
GI50 (SNB-75 CNS): 1290 nM
TGI (SNB-75 CNS): 2570 nM
GI50 (MCF7 breast): 3010 nM
TGI (MCF7 breast): > 100000 nM
GI50 (SF-539 CNS): 1580 nM
TGI (SF-539 CNS): 2970 nM
GI50 (SK-MEL-2 melanoma): 17200 nM
TGI (SK-MEL-2 melanoma): 40000 nM
GI50 (SR leukemia): 2720 nM
TGI (SR leukemia): > 100000 nM
GI50 (LOX IMVI melanoma): 1820 nM
TGI (LOX IMVI melanoma): 3210 nM
GI50 (CCRF-CEM leukemia): 3840 nM
TGI (CCRF-CEM leukemia): > 100000 nM
GI50 (CAKI-1 renal): 1800 nM
TGI (CAKI-1 renal): 3860 nM
GI50 (UACC-257 melanoma): 1750 nM
TGI (UACC-257 melanoma): 3480 nM
GI50 (KM12 colon): 1780 nM
TGI (KM12 colon): 3350 nM
GI50 (HCT-15 colon): 2710 nM
TGI (HCT-15 colon): 8280 nM
GI50 (A498 renal): 1720 nM
TGI (A498 renal): 3630 nM
GI50 (SK-OV-3 ovarian): 22800 nM
TGI (SK-OV-3 ovarian): 44400 nM
GI50 (UACC-62 melanoma): 1730 nM
TGI (UACC-62 melanoma): 3170 nM
GI50 (TK-10 renal): 2110 nM
TGI (TK-10 renal): 7400 nM
GI50 (RPMI-8226 leukemia): 4040 nM
TGI (RPMI-8226 leukemia): > 100000 nM
GI50 (HCC-2998 colon): 1820 nM
TGI (HCC-2998 colon): 3270 nM
GI50 (786-0 renal): 1570 nM
TGI (786-0 renal): 3000 nM
GI50 (SF-268 CNS): 2030 nM
TGI (SF-268 CNS): 4710 nM
GI50 (MALME-3M melanoma): 1520 nM
TGI (MALME-3M melanoma): 2910 nM
GI50 (SN12C renal): 1820 nM
TGI (SN12C renal): 3720 nM
GI50 (NCI-H522 lung): 1850 nM
TGI (NCI-H522 lung): 3540 nM
GI50 (SF-295 CNS): 2200 nM
TGI (SF-295 CNS): 5090 nM
GI50 (EKVX NSCLC): 2340 nM
TGI (EKVX NSCLC): 6040 nM

C[C@H]1O[C@@H](O[C@H]2[C@@H](O)C[C@H](O[C@H]3[C@@H](O)C[C@H](O[C@H]4CC[C@]5(C)C6C[C@@H](O)[C@]7(C)[C@@H](C8=CC(=O)OC8)CC[C@]7(O)C6CC[C@@H]5C4)O[C@@H]3C)O[C@@H]2C)C[C@H](O)[C@@H]1O (some centres undefined)
GI50 (MDA-MB-468 breast): 148 nM
TGI (MDA-MB-468 breast): 465 nM
